Data on 1 compound can be found in patent US20130059787A1, “METHODS OF USING HUMAN PROTEIN KINASE C DELTA VIII AS A BIOMARKER” (UNITED STATES DEPARTMENT OF VETERAN AFFAIRS, priority 2010, published 2013).

One assay has as its system ischemic stroke. Conditions: RA injections immediately and following ischemia; cited from earlier work.
The next assay deals with PKCδVIII mRNA. Nature of the assay: Quantitative real-time RT-PCR (SYBR Green) in primary human neuronal cells from hippocampus. It counts as cell-based. Conditions: RA about 10 μM, about 24 h. From the text: (§1) FIG. 1 is a series of images illustrating the alternative splice site in human PKC δ. (a) schematic of alternative 5′ splice site selection in human PKCδ pre-mRNA exon 10 that results in the generation of PKCδI mRNA and PKCδVIII mRNA, which differ by about 93 bp in the V3 hinge region. RA promotes expression of PKCδVIII mRNA. SSI: 5′ splice site I; SSII: 5′ splice site II. (b) schematic of the primers specific for PKC δI and PKC δVIII used in real time RT-PCR such that they span the exon-exon boundaries. (c) primary human neuronal cells from hippocampus were treated with or without RA (about 10 μM) for about 24 h. […]
(§2) cDNA (about 2 μl) was amplified by real-time quantitative PCR using Syber (SYBR) Green with an ABI PRISM 7900 sequence detection system (PE Applied Biosystems, Foster City, Calif.) as described previously to quantify absolute levels of PKCδI and PKCδVIII mRNA in the samples (Jiang, K., Apostolatos, A. H., Ghansah, T., Watson, J. E., Vickers, T., Cooper, D. R., Epling-Burnette, P. K., and Patel, N. A. (2008) Biochemistry 47, 787-797). […]
(§3) sense primer 5′-[…]-3′(SEQ ID No: 6) and antisense primer 5′-[…]-3′ (SEQ ID No: 7). […] Absolute quantification of mRNA expression levels for PKCδI and PKCδVIII was calculated by normalizing the values to GAPDH. The results were analyzed with two-tailed Student's t test using PRISM4 statistical analysis software (GraphPad, San Diego, Calif.). […]
For orientation: In qPCR the cycle at which signal appears reflects the starting amount.

A further assay concerns PKCδI mRNA. The description is as above. Conditions: RA about 10 μM, about 24 h. It counts as cell-based.
Text: as §1, §2, §3

The test system of the next assay is Bcl-2. Nature of the assay: Apoptosis micro-array (SuperArray, real-time RT-PCR) in NT2 cells. The assay is classed as cell-based, human. Particulars: RA about 24 h vs control. An excerpt: (§4) FIG. 4 is a 3D profile of the results from the apoptosis micro-array. The graph represents an average of control and RA (1 day) samples carried out in triplicate. The average ΔCt=Ct(gene of interest)−Ct(housekeeping gene).
(§5) The inventors have shown that retinoic acid increases the levels of PKCδVIII in NT2 cells. An apoptosis micro-array (SuperArray, catalog #PAHS-012A) was used to determine the profiles of proteins associated with the apoptotic cascade. RNA was isolated from control and RA (about 24 h) treated NT2 cells and used in the analysis. Real-time RT-PCR was performed according to the manufacturers' protocol and data was analyzed by SuperArray software (FIG. 4). The inventors observed about a 6-fold increase in Bcl-2 levels which were concurrent with an increase in PKCδVIII levels following RA treatment.

Another assay concerns A1. The assay is described as above. The assay is classed as cell-based, human. Conditions: RA about 24 h vs control.
Text: as §4, §5

A further assay concerns Mcl-1. The assay is described as above. It counts as cell-based, human. Particulars: RA about 24 h vs control.
Text: as §4, §5

`CC1=C(/C=C/C(C)=C/C=C/C(C)=C/C(=O)O)C(C)(C)CCC1` [RA, all-trans-retinoic acid]: the infarct volume entry in the assay on ischemic stroke was “reduced”. The “absolute mRNA expression of PKCδVIII normalized to GAPDH” value in the assay with PKCδVIII mRNA is given as “increased”. In the assay on PKCδI mRNA, the “absolute mRNA expression of PKCδI normalized to GAPDH” value is listed as “remain constant”. In addition, in the assay on Bcl-2, the “increase in Bcl-2 levels” value is recorded as ~6 fold. Also, the A1 levels result with A1 is given as “Moderate increases”. In addition, the Mcl-1 levels result in the assay with Mcl-1 is reported as “Moderate increases”.
